Entries after “also recorded” stand apart in the source; their conditions may differ. Read-outs that look alike come from different tables or passages of the source.
Legend:
[1] = test system: acute cerebral ischemia in SD rats; assay: Anti-acute cerebral ischemia activity (middle cerebral artery electrocoagulation, TTC staining); assay type: in vivo
Experimental: At this time, a relatively straight blood vessel with few branches can be seen through the dura mater, that is, the middle cerebral artery. […] The temporal muscle and skin were sutured in turn, and then the rat was administered by gavage (50 mg/kg). After the rats were awakened, they were put back into their cages and continued to be reared for 24 h.
The brain slices were stained in 1% TTC dye solution (incubated at 37° C. in the dark for about 5-10 min), the infarcted area of brain slices after staining was white, while the non-infarcted area was rose red; after staining was completed, the brain slices were moved to 10% formaldehyde solution and kept away from light for 24 hours, finally, a digital camera was used to take pictures, the areas of frontal and reverse infarcted areas and non-infarcted areas were measured by image analysis software (ImageJ, version: 1.4.3.67), and the ratio of infarcted areas in the total infarcted cerebral hemisphere was calculated.

[2] = test system: platelet aggregation; assay: In vitro anti-platelet aggregation activity evaluation (PAF-induced, platelet-rich plasma); assay type: cell-based, New Zealand white rabbits; details: for inhibitory effect on platelet aggregation in vitro (in words): 1 μM, compared with Ginkgolide B; for activity at 1 µM: Oryctolagus cuniculus, Platelet, read-out: Platelet aggregation rate (%, 1 μM)
Experimental: Experimental method: New Zealand white rabbits were anesthetized with sodium pentobarbital (2%, 2 mL/kg), about 40 mL of blood was obtained by abdominal aortic puncture, and the supernatant was collected as platelet-rich serum (PRP) after centrifugation at 1000 rpm/min for 10 min, the remaining blood was centrifuged at 4000 rpm/min for 10 min, and the supernatant was collected as platelet-poor serum (PPP); blank control group: 100 μL PRP+100 μL normal saline; drug group: 100 μL PRP+100 μL 0.05% DMSO dissolved drug (Ginkgolide B was positive control group), and the final drug concentration was 1 μM.

[3] = test system: platelet aggregation in SD rats; assay: Anticoagulant activity in SD rats (ADP-induced maximum platelet aggregation rate after gavage); assay type: in vivo; details: for Average maximum platelet aggregation rate (%): 50 mg/kg by gavage once a day for 3 days, ADP inducer, PAGM within 5 min; for anti-aggregation activity on platelet aggregation in SD rats (in words): 50 mg/kg, n=10, compared with Ginkgolide B
Experimental: Experimental method: Rats were randomly divided into 10 rats in each group, and each group was given the corresponding test drug (50 mg/kg) by gavage after weighing, once a day for 3 days.
150 μL of PRP in each group was sucked and added to the 96-well plate (adjusted to zero by PPP), and ADP inducer was added, the absorbance value A1 was measured at the wavelength of 650 nm in the microplate reader, which was the absorbance value of each group at 0 min; the oscillation mode of the microplate reader was turned on, and the absorbance value A2 was detected again after 5 min, which was the absorbance value of each group at 5 min. Since the addition of ADP would cause platelet aggregation and change the light permeability, the maximum platelet aggregation rate (PAGM) within 5 min was measured according to this principle. Maximum platelet aggregation rate(PAGM)=(A1−A2)/A1×100

[4] = SD rats, 50 mg/kg by gavage after occlusion, 24 h, n=10
[5] = 1 μM drug, PAF-induced, rabbit PRP, corrected to blank = 100, n=5
[6] = SD rats, 50 mg/kg, n=10, compared with model group / Ginkgolide B, 50 mg/kg
[7] = SD rats, 50 mg/kg by gavage after occlusion, 24 h, n=10, 50 mg/kg

Row | Molecule | Platelet aggregation rate (%, 1 μM) [2, 5] | inhibitory effect on platelet aggregation in vitro (in words) [2] | Average maximum platelet aggregation rate (%) ([3]; n=10) | further results
1 | 2-(Ginkgolide B-10-oxy) n-pentylamine Acetate [Embodiment 17] | 21.90% | significant activity | 34.20% | Average area ratio of hemicerebral infarction (%) [1, 4]: 25.31%
2 | 2-(Ginkgolide B-10-oxy) pyrrolidine Acetate [Embodiment 18] | 26.45% | – | – | –
3 | 2-(Ginkgolide B-10-oxy)ammonium Acetate [Embodiment 11] | 56.53% | – | – | –
4 | 2-(Ginkgolide B-10-oxy)arginine Acetate [Embodiment 13] | 15.66% | significant activity | 21.25% | Average area ratio of hemicerebral infarction (%) [1, 4]: 20.14%; activity for reducing the area ratio of hemicerebral infarction in SD rats (in words) [1, 6]: particularly significant (P<0.001); anti-aggregation activity on platelet aggregation in SD rats (in words) [3]: particularly significant (P<0.001)
5 | 2-(Ginkgolide B-10-oxy)diethylamine Acetate [Embodiment 16] | 28.87% | – | – | –
6 | 2-(Ginkgolide B-10-oxy)histidine Acetate [Embodiment 14] | 19.74% | significant activity | 26.82% | Average area ratio of hemicerebral infarction (%) [1, 4]: 17.98%; activity for reducing the area ratio of hemicerebral infarction in SD rats (in words) [1, 6]: particularly significant (P<0.001); anti-aggregation activity on platelet aggregation in SD rats (in words) [3]: particularly significant (P<0.001)
7 | 2-(Ginkgolide B-10-oxy)lysine Acetate [Embodiment 12] | 12.23% | significant activity | 22.65% | Average area ratio of hemicerebral infarction (%) ([1]; rat, in vivo, 50 mg/kg): 18.83%; activity for reducing the area ratio of hemicerebral infarction in SD rats (in words) ([1]; rat, in vivo, 50 mg/kg): particularly significant (P<0.001); also recorded: significantly better than Ginkgolide B and embodiment 10; anti-aggregation activity on platelet aggregation in SD rats (in words) [3]: particularly significant (P<0.001)
8 | 2-(Ginkgolide B-10-oxy)morpholine Acetate [Embodiment 19] | 35.77% | – | – | –
9 | 2-(Ginkgolide B-10-oxy)triethylamine Acetate [Embodiment 15] | 24.65% | – | – | –
10 | 2-(Ginkgolide B-10-oxyethoxy)N-methyl-D-glucosamine Acetate [Embodiment 21] | 18.64% | significant activity | 29.35% | Average area ratio of hemicerebral infarction (%) [1, 4]: 22.66%
11 | 2-(Ginkgolide B-10-oxyethoxy)sodium Acetate [Embodiment 20] | 45.32% | – | – | –
12 | COC(=O)CO[C@H]1C(=O)O[C@H]2O[C@]34C(=O)OC5C[C@@H](C(C)(C)C)C21[C@@]53[C@@H](O)[C@@H]1OC(=O)C(C)[C@@]14O (some centres unmarked) [Embodiment 1, 10-O-(methoxyformylmethyl) Ginkgolide B] | – | – | – | activity at 1 µM [2]: 30%
13 | COC(=O)/C=C/CO[C@H]1C(=O)O[C@H]2O[C@]34C(=O)OC5C[C@@H](C(C)(C)C)C21[C@@]53[C@@H](O)[C@@H]1OC(=O)C(C)[C@@]14O (some centres unmarked) [Embodiment 2, 10-O-(methoxyformylallyl) Ginkgolide B] | – | significant activity | 32.60% | Average area ratio of hemicerebral infarction (%) [1, 4]: 21.56%; activity at 1 µM [2]: 10.3%
14 | CC1C(=O)O[C@H]2[C@H](O)[C@@]34C5C[C@@H](C(C)(C)C)C36[C@@H](OC(=O)[C@@H]6OCC(=O)OC(C)(C)C)O[C@@]4(C(=O)O5)[C@@]12O (some centres unmarked) [Embodiment 3, 10-O-(tert-butoxyformylmethyl) Ginkgolide B] | – | – | – | activity at 1 µM [2]: 26.1%
15 | COC(=O)COCCO[C@H]1C(=O)O[C@H]2O[C@]34C(=O)OC5C[C@@H](C(C)(C)C)C21[C@@]53[C@@H](O)[C@@H]1OC(=O)C(C)[C@@]14O (some centres unmarked) [Embodiment 4, 10-O-(methoxyformylmethoxyethyl) Ginkgolide B] | – | – | – | activity at 1 µM [2, 5]: 46.7%
16 | COC(=O)COCCOCCO[C@H]1C(=O)O[C@H]2O[C@]34C(=O)OC5C[C@@H](C(C)(C)C)C21[C@@]53[C@@H](O)[C@@H]1OC(=O)C(C)[C@@]14O (some centres unmarked) [Embodiment 5, 10-O-(methoxyformylmethoxyethoxyethyl) Ginkgolide B] | – | – | – | activity at 1 µM [2]: 39.3%
17 | CC1C(=O)O[C@H]2[C@H](O)[C@@]34C5C[C@@H](C(C)(C)C)C36[C@@H](OC(=O)[C@@H]6OC/C=C/C(=O)O)O[C@@]4(C(=O)O5)[C@@]12O (some centres unmarked) [Embodiment 6, 4-(Ginkgolide B-10-oxy)-2-butenoic Acid] | – | – | – | activity at 1 µM [2, 5]: 45.7%
18 | CC1C(=O)O[C@H]2[C@H](O)[C@@]34C5C[C@@H](C(C)(C)C)C36[C@@H](OC(=O)[C@@H]6OCC(=O)O)O[C@@]4(C(=O)O5)[C@@]12O (some centres unmarked) [Embodiment 7, 2-(Ginkgolide B-10-oxy)acetic Acid] | 17.66% | significant activity | – | Average area ratio of hemicerebral infarction (%) [1, 7]: 25.14%; Average maximum platelet aggregation rate (%) ([3]; n=10, 50 mg/kg): 35.20%
19 | CC1C(=O)O[C@H]2[C@H](O)[C@@]34C5C[C@@H](C(C)(C)C)C36[C@@H](OC(=O)[C@@H]6OCCOCC(=O)O)O[C@@]4(C(=O)O5)[C@@]12O (some centres unmarked) [Embodiment 8, 2-(Ginkgolide B-10-oxyethoxy)acetic Acid] | – | – | – | activity at 1 µM [2, 5]: 23.7%
20 | CC1C(=O)O[C@H]2[C@H](O)[C@@]34C5C[C@@H](C(C)(C)C)C36[C@@H](OC(=O)[C@@H]6OCCOCCOCC(=O)O)O[C@@]4(C(=O)O5)[C@@]12O (some centres unmarked) [Embodiment 9, 2-(Ginkgolide B-10-oxyethoxyethoxy)acetic Acid] | – | – | – | activity at 1 µM [2, 5]: 35%
21 | CC1C(=O)O[C@H]2[C@H](O)[C@@]34C5C[C@@H](C(C)(C)C)C36[C@@H](OC(=O)[C@@H]6OCC(=O)O)O[C@@]4(C(=O)O5)[C@@]12O (some centres unmarked) [Embodiment 10, 2-(Ginkgolide B-10-oxy)sodium Acetate] | 39.34% | – | – | Average area ratio of hemicerebral infarction (%) [1, 7]: 29.61%; Average maximum platelet aggregation rate (%) ([3]; n=10, 50 mg/kg): 42.20%
22 | CC1C(=O)OC2C(O)C34C5CC(C(C)(C)C)C36C(OC(=O)C6O)OC4(C(=O)O5)C12O (centres unmarked) [Ginkgolide B] | 63.42% | – | 39.57% | Average area ratio of hemicerebral infarction (%) [1, 4]: 26.12%

Source: patent US12371438B2, “Ginkgolide B derivative and salt thereof, preparation method therefor and use thereof” (HUILING JINXIN (SHANGHAI) PHARMACEUTICAL TECHNOLOGY CO., LTD, priority 2019, dated 2025)
